Experimental data published in article PMC4071002, “Identification and In Vitro Reactivity of Celiac Immunoactive Peptides in an Apparent Gluten-Free Beer” (PLoS ONE, 2014).
Residues, ends and D or L forms follow the SMILES beside them.

Test system: moAb A1 (anti-gliadin 33-mer)
Assay: A1 competitive ELISA (immobilized gliadin, A1-HRP)
Format: binding
Conditions: Figure 2A
Method: Maxisorp microtitre plates (Nunc, Roskilde, Denmark) were coated with gliadin solution (Sigma, St Louis, MO, USA) and incubated overnight at 4°C. The plates were washed with phosphate-buffered saline (PBS) containing 0.05% Tween 20 and blocked with 5% non-fat dry milk in PBS for 1 h at room temperature (RT). 33-mer peptide was used as standard. Serial dilutions of peptides were made in PBS-bovine serum albumin (BSA) 3%, to each of which was added G12-HRP or A1-HRP antibody solution [14]. The samples were pre-incubated at RT, and then added to the wells. After 30 min of incubation at RT, the plates were washed and substrate solution (TMB, Sigma) was added. The reaction was stopped with 1 M sulphuric acid, and the absorbance at 450 nm was measured (microplate reader UVM340; Asys Hitech GmbH, Eugendorf, Austria). Two separate assays were performed, each with three repetitions.
Peptide curves were obtained by plotting percentage maximum absorbance against logarithm of antigen concentration. The software package Sigma Plot 9.0 (Systat Software, Inc., Point Richmond, CA, USA) was used to calculate IC50 and the cross-reactivity (CR) for each peptide. The IC50 is defined as the concentration that produces a reduction of 50% in the peak signal in the ELISA. The CR was determined as (IC50 of the peptide that presents the greatest affinity for the antibody/IC50 of each peptide assayed) x 100.

Question: `CC(C)C[C@H](NC(=O)[C@H](CCC(N)=O)NC(=O)[C@@H](N)CC(C)C)C(=O)N[C@@H](CCC(N)=O)C(=O)N1CCC[C@H]1C(=O)N[C@@H](Cc1ccccc1)C(=O)N1CCC[C@H]1C(=O)N[C@@H](CCC(N)=O)C(=O)N1CCC[C@H]1C(=O)N[C@@H](CCC(N)=O)C(=O)N[C@@H](CC(C)C)C(=O)N1CCC[C@H]1C(=O)N[C@@H](Cc1ccc(O)cc1)C(=O)N1CCC[C@H]1C(=O)N[C@@H](CCC(N)=O)C(=O)N1CCC[C@H]1C(=O)N[C@@H](CCC(N)=O)C(=O)N[C@@H](CC(C)C)C(=O)N1CCC[C@H]1C(=O)N[C@@H](Cc1ccc(O)cc1)C(=O)N1CCC[C@H]1C(=O)N[C@@H](CCC(N)=O)C(=O)N1CCC[C@H]1C(=O)N[C@@H](CCC(N)=O)C(=O)N[C@@H](CC(C)C)C(=O)N1CCC[C@H]1C(=O)N[C@@H](Cc1ccc(O)cc1)C(=O)N1CCC[C@H]1C(=O)N[C@@H](CCC(N)=O)C(=O)N1CCC[C@H]1C(=O)N[C@@H](CCC(N)=O)C(=O)N1CCC[C@H]1C(=O)N[C@@H](Cc1ccccc1)C(=O)O` [33-mer] (H-LQLQPFPQPQLPYPQPQLPYPQPQLPYPQPQPF-OH; N-terminus and C-terminus assumed) was tested. Which “moAb A1 IC50” value (competitive ELISA, gliadin-coated plates, A1-HRP, 30 min RT, absorbance 450 nm, two assays, three replicates each) did it give?
Answer: The value was 0.60 µg/mL.

Question: What about the “moAb A1 CR” value (cross-reactivity = (IC50 of peptide with greatest affinity / IC50 of each peptide) x 100, PP 24.1 = 100) of the same molecule?
Answer: The value was 241.67%.
